Patent US20200072837A1, “METHODS FOR PREVENTING, MODULATING AND/OR REDUCING CARDIOVASCULAR DISEASE” (OP-T LLC, priority 2018, published 2020)

Assays:
NOD mice [1] = test: Development of diabetes in NOD mice treated with CD154 peptides; type: in vivo, mouse; conditions: weekly iv injection from 6 weeks of age, diabetic = blood glucose above 250 mg/dL on 3 consecutive measures
Method: (§1) Peptides were designed based on the amino acid sequence of mouse CD154 protein (SEQ ID NO:1) in the SwissPro database. […] Weekly after the initial injection, another 100 ug of peptide (or 100 ul of saline in the case of the Control mice) was injected into the tail vein. At 10 weeks of age, mice were monitored for diabetes, as indicated by a blood glucose level greater than 250 mg/dL for three consecutive days. During this time, blood was also taken from the tail vein, or by sub-mandibular venal puncture, and the level of CD4+ and CD8+ cells determined by flow cytometry using antibodies for CD4 protein and CD8 protein.
NOD mice at 6 weeks of age were injected weekly iv with 25 ug (1 mg/kg) of each peptide through 45 weeks. Each cohort included 10 animals. Blood glucoses were measured and levels at 250 mg/dl or higher for 3 consecutive measures were considered diabetic. […] (This is showing in FIG. 1).

[2] = system: CD3+CD4+CD40+ splenic cells (Th40 cells); test: In vitro cytokine production of splenic Th40 cells, flow cytometry; type: cell-based, mouse; conditions: splenic lymphocytes of ApoE and C57BL/6 mice, overnight with varying concentrations of peptide
Method: Spleens from ApoE mice and C57BL/6 mice were processed for lymphocytes. ApoE−/− and C57BL/6 mice were fed a 60% high fat diet (research diet) for 1 week. Splenic lymphocytes were treated with 6-mer in vitro for 24 hours. Cells were placed in media overnight in the presence of varying concentrations of 6-mer peptides. The following morning, Brefeldin A was administered for 4 hours. All cells were stained for CD3, CD4, CD40 (Th40 cells) and measured by use of flow cytometry for their production of IL2, INFγ, and IL17a.
Spleens from ApoE mice and C57BL/6 mice were processed for lymphocytes, placed in media overnight in the presence of varying concentrations of KGYY6 peptide. BrefeldinA was administered for four hours.

ApoE-/- mice [3] = test: Atherosclerotic changes in ApoE-/- mice on high fat diet (en-face Sudan IV, Paigen method, trichrome); type: in vivo, mouse
Method: ApoE−/− mice were fed a high fat diet for 16 weeks. Mice were randomly assigned to receive dose of 1 mg/kg of KGYY6 (6-mer—SEQ ID NO:4) by IV tail injection, once a week for a period of 4 weeks. Control mice received vehicle only. Atherosclerosis was investigated by several methods. […] FIG. 28A is an image of KGYY6 treated aortic en-face Sudan IV staining and FIG. 28B is an image of control (untreated) aortic en-face Sudan staining.
Further, measurement of plaque area and morphology was performed using the Paigen method. This method obtains sequential 5 um aortic cross sections from the aortic root beginning at the valve leaflets into the ascending aorta. At 50 um intervals, slides are stained after which the area of atherosclerotic lesion is measured. Individual plaque area measurements are plotted against the micrometer intervals and a curve is established, with the area under the curve (AUC) giving the total volume of plaque.
ApoE−/−mice (n=16, 4 male and 4 female per group), fed a 60% high fat diet (Research Diets) for 16 weeks. 8 mice were injected with 1 mg/kg KGYY6 and […] with vehicle alone. Glucose tolerance testing (GTT) was performed by fasting 6 hours, followed by intraperitoneal injection of 1 g/kg body weight glucose in water. Both blood glucose and serum insulin were measured at 0, 15 min, 30 min, 60 min and 2 hours.

ApoE-/- mice [4] = test: LDL cholesterol in ApoE-/- mice; type: in vivo, mouse; conditions: 1 mg/kg IV once a week for 4 weeks, treated versus untreated
Method: In this study, six ApoE−/− mice received a normal chow diet from 0 to 20 weeks of age. At 20 weeks of age, three mice were randomly assigned to receive dose of 1 mg/kg of KGYY6 (6-mer—SEQ ID NO:4) by IV tail injection, once a week for a period of 4 weeks. Control mice received vehicle only.

B cells = test: Binding of FITC-labeled 15-mer peptide to B cells, flow cytometry; design: species or system mouse; conditions: B cells from spleens of NOD mice, 90% CD40 positive
Method: B cells were isolated from the spleens of NOD mice. Sorted MHC-II+ cells were purified from total lymphocytes. Cells were stained with FITC-labeled 15 mer peptide, anti-CD40, and B cell markers CD19 and CD21. MHC-II+ cells were gated for CD19+ and CD21+ and then 15-mer peptide versus CD40 antibody was measured.

ApoE-/- mice [5] = test: Existing atherosclerotic disease in ApoE-/- mice, 4 weeks of treatment, plaque morphology; type: in vivo, mouse
Method: In this study, six ApoE−/− mice received a normal chow diet from 0 to 20 weeks of age. At 20 weeks of age, three mice were randomly assigned to receive dose of 1 mg/kg of KGYY15 (15-mer—SEQ ID NO:7) by IV tail injection, once a week for a period of 4 weeks. Control mice received vehicle only. After 4 weeks of treatment, animals were euthanized then perfused through cardiac puncture with 4% paraformaldehyde. Aortic arches were dissected in surcrose gradient and flash frozen. Approximately fifty, […] longitudinal sections were obtained per mouse. Slides were treated with trichrome stain and analyzed using cellSens software for measurements. Total plaque was measured including 2.5 mm lesser curvature and innominate artery.

NOD mice [6] = test: Insulin granulation of pancreas in NOD mice after reversal of hyperglycemia; type: in vivo, mouse; conditions: six weeks after reversal of hyperglycemia, versus irrelevant peptide
Method: (§2) At the onset of diabetes, six NOD mice were injected with 100 ug/ml of the 15-mer peptide (SEQ ID NO:9), resulting in the reversal of hyperglycemia in 80% of the recipients. Six weeks after reversal of hyperglycemia, mice were sacrificed and the pancreas removed for analysis. The pancreas was fixed, sectioned and then stained using an aldehyde/fuschsin stain that allows detection of insulin granules. Granulation of the tissue was scored as follows: 4=completely granulated; 3=75% of islet granulated; 2=50% of islet granulated, and peri-insulitis; 1=25% of islet granulated; 0=no insulin granules detected.

[7] = Clot study in whole human blood; conditions: dosing levels similar to murine studies
Method: Whole human blood was administered the peptide in accordance with similar dosing levels to those used for murine studies.

blood cells = test: Binding of biotin-conjugated 15-mer peptide to whole blood cells of type-I diabetic and control subjects; design: species or system human; conditions: type-I diabetes patients versus non-diabetic controls, absorbance at 405 nm
Method: 1 ml of whole blood was obtained from each individual and incubated with biotin-conjugated, 15-mer peptide. The cells were then exposed to horseradish peroxidase (HRP)-avidin, washed and the absorbance at 405 nm determined using a spectrophotometer.

NOD mice [8] = test: CD4/CD8 ratio in blood of peptide-treated NOD mice by flow cytometry; type: in vivo, mouse
Method: as §1

NOD mice [9] = test: Reversal of hyperglycemia in already diabetic NOD mice; type: in vivo, mouse
Method: Six mice from that had received the 6-mer peptide in Example 1, and that had subsequently developed diabetes, were injected intravenously with 100 ug of the 15-mer peptide. These mice were then given weekly injections of the 15-mer peptide into their tail veins, and their blood glucose levels monitored twice-weekly. The 15-mer peptide was administered for a total of ten weeks, after which the treatment was stopped.
as §2

ApoE deficient mice = test: Atherosclerosis in ApoE deficient mice on normal chow, aortic arch analysis; type: in vivo, mouse
Method: ApoE deficient mice on a normal chow diet were selected to receive a dose of 1 mg/kg of the 15-mer peptide (SEQ ID NO: 7) by IV tail injection, three times a week over a period of […], beginning at 9 weeks of age and also utilized a control. At 25 weeks, the animals were euthanized, weighed, and then had blood, spleen, and pancreas removed for analysis. The subjects were then perfused through cardiac puncture with 4% paraformaldehyde. Aortic arches were dissected, dehydrated in sucrose gradient and then flash frozen.
FIG. 17 provides an example of the lesser curvature of the aortic arch, defined proximally from the aortic outflow (AO). Of the segments seen in the trichrome stain, an intimal distance of […] was measured distally. The aortic-arch wall area subtended by this 2.5 mm stretch of the intima was calculated for each section of all mice, with maximal area of the inner-aortic-arch wall of each mouse used to compute averages per group. The luminal surface (L), aortic arch (AO), and innominate artery (I) are labelled in this FIG. 17.
Plaque was subdivided based on morphology of early lesions (observable as fatty streaks containing macrophage derived foam cells with varying degrees of lipid accumulation) compared with more advanced fibroatheromas (containing varying degrees of lipid or necrotic core and fibrous caps). All plaque within the designated 2.5 mm segment were included.

CD40+ T-cells = test: Binding of FITC-labeled 15-mer peptide to Th40 cells, flow cytometry; design: species or system mouse; conditions: lymphocytes of 9 week old NOD mice
Method: Total lymphocytes were isolated from 9 week old NOD mice. The lymphocytes were incubated with […], anti-CD8, and an FITC-labeled 15-mer peptide, and then analyzed by flow cytometry. Cells were gated for CD4 (both CD4hi and CD4lo populations were included) and CD4 versus the 15-mer peptide.

[10] = trichrome staining, Image Pro Plus analysis
[11] = 1 mg/kg IV once a week for 4 weeks

KKGYYT [KGYY6]
development / onset of diabetes (NOD mice [1]): prevents diabetes onset in NOD mice
production of IFNg [2]: varying degrees of reduction
production of IL2 [2]: varying degrees of reduction
production of IL17a [2]: varying degrees of reduction
lesion areas, en-face Sudan IV stain (ApoE-/- mice [3]; ApoE-/- mice, high fat diet 16 weeks, 1 mg/kg IV once a week for 4 weeks): significant reduction in lesion areas
plaque volume (area under the curve), Paigen method (ApoE-/- mice [3]; ApoE-/- mice, high fat diet, aortic root cross sections): reduction in plaque volume under the curve
plaque composition: collagen (ApoE-/- mice [3]; [10]): increased collagen
plaque composition: smooth muscle content (ApoE-/- mice [3]; [10]): reduced smooth muscle content
reduction in LDL cholesterol values (ApoE-/- mice [4]): > 50%

VLQWAKKGYYTMK [13-mer]
development / onset of diabetes (NOD mice [1]): significant effects on the development of diabetes

VLQWAKKGYYTMKSN (VLQWAKKGYYTMKSK) [15-mer, 15-mer peptide from mouse CD154]
B cells that bound the peptide (B cells): 8%
average cap width (cap size) (ApoE-/- mice [5]; [11]): greater
average core width (core size/plaque size) (ApoE-/- mice [5]; [11]): decreased
cap to core ratio of advanced plaques (ApoE-/- mice [5]; [11]): reduced
number of individual early plaques and advanced plaques (ApoE-/- mice [5]; 1 mg/kg IV once a week for 4 weeks from 20 weeks of age): reduced
development / onset of diabetes (NOD mice [1]): prevented the onset of diabetes
development / onset of diabetes (NOD mice [1]; listed as KGYY15): prevents diabetes onset in NOD mice
insulin granulation of the pancreas (NOD mice [6]): preserved insulin granules in the majority of the mice
clotting of whole human blood [7]: does not modify or change the clotting of whole human blood significantly outside of normally recognized levels
peptide binding activity of blood cells (blood cells): higher 15-mer peptide binding activity than cells from non-diabetic controls
compromise of the immune system as determined by the CD4/CD8 ratio (NOD mice [8]): did not result in compromise of the immune system
reversal of hyperglycemia (NOD mice [9]; already diabetic NOD mice, 100 ug iv weekly for ten weeks): can reverse hyperglycemia
return of hyperglycemia after cessation of the treatment (NOD mice [9]; diabetic NOD mice, treatment stopped after ten weeks): ≤ 7 weeks
recipients with reversal of hyperglycemia (NOD mice [9]; six NOD mice injected at onset of diabetes): 80%
atherosclerosis (ApoE deficient mice; 1 mg/kg IV three times a week): abrogates atherosclerosis
total area of the 2.5 mm segment of the lesser curvature of the aortic arch (ApoE deficient mice; 1 mg/kg IV three times a week from 9 weeks of age): substantially reduced
total number of plaque (ApoE deficient mice; 1 mg/kg IV three times a week, plaque within 2.5 mm segment): significantly decreased
CD40+ T-cells that bind the peptide (CD40+ T-cells): 90%
